Data taken from ChEMBL document CHEMBL5528027, “Target identification, and optimization of dioxygenated amide derivatives as potent antibacterial agents with FabH inhibitory activity” (Eur J Med Chem, 2024).
Values after ≈ are worked out from the molar mass of the structure shown. Active and inactive are the calls of the source. The calls are words filed in the database; no cut-off is given here.

Tests used:
[1] = biological target: T1, Beta-ketoacyl-[acyl-carrier-protein] synthase III (Escherichia coli K-12) (UniProt P0A6R0); assay: Binding affinity to Escherichia coli FabH assessed as change in enthalpy by Isothermal titration calorimetry method
T1 sequence (whole entry): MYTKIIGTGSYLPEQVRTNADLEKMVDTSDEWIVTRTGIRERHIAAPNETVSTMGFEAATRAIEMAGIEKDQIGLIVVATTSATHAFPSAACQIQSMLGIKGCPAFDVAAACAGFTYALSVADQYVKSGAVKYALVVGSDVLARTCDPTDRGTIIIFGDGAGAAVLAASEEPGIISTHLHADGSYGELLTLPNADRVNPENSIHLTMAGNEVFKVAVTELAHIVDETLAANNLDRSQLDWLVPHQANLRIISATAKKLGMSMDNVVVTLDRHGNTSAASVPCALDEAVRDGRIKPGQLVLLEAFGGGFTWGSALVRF

Staphylococcus aureus [2] = assay: In vivo antibacterial activity against Staphylococcus aureus infected in Sprague-Dawley rat skin infection model assessed in shrink of wound area measured after 3 days; format: functional, organism-based; settings: time 3.0 day
Bacillus subtilis = assay: Antibacterial activity against Bacillus subtilis assessed as reduction in bacterial growth measured after 24 hrs by two-fold serial dilution method; format: functional
Erythrocyte = assay: Hemolytic activity in human erythrocytes assessed as hemolysis by spectrophotometric analysis; format: toxicity, cell-based
Escherichia coli = assay: Antibacterial activity against Escherichia coli assessed as reduction in bacterial growth measured after 24 hrs by two-fold serial dilution method; format: functional
Staphylococcus aureus [3] = assay: In vivo antibacterial activity against Staphylococcus aureus infected in Sprague-Dawley rat skin infection model assessed in reduction of wound pus measured after 3 days; format: functional, organism-based; settings: time 3.0 day
[4] = biological target: T1, Beta-ketoacyl-[acyl-carrier-protein] synthase III (Escherichia coli K-12); assay: Binding affinity to Escherichia coli FabH assessed as change in Gibbs free energy by Isothermal titration calorimetry method
[5] = Cytotoxicity against mouse NIH3T3 cells incubated for 24 hrs by MTT analysis; format: toxicity, cell-based
Staphylococcus aureus [6] = assay: In vivo antibacterial activity against Staphylococcus aureus infected in Sprague-Dawley rat skin infection model assessed in wound healing measured after 10 days (reference value: 70.8%); format: functional; settings: time 10 day
Staphylococcus aureus [7] = assay: In vivo antibacterial activity against Staphylococcus aureus infected in Sprague-Dawley rat skin infection model assessed in reduction of wound size measured after 6 days; format: functional, organism-based; settings: time 6.0 day
Staphylococcus aureus [8] = assay: Antibacterial activity against Staphylococcus aureus assessed as reduction in bacterial growth measured after 24 hrs by two-fold serial dilution method; format: functional
Staphylococcus aureus [9] = assay: In vivo antibacterial activity against Staphylococcus aureus infected in Sprague-Dawley rat skin infection model assessed in decrease in number of inflammatory cells within wound tissue measured after 3 to 10 days by H and E staining based analysis; format: functional, organism-based; settings: time 3-10 day
[10] = biological target: T2, Beta-ketoacyl-[acyl-carrier-protein] synthase III (Escherichia coli K-12, UniProt P0A6R0); assay: Inhibition of Escherichia coli FabH
T2 sequence (P0A6R0 whole entry): T1 sequence (whole entry)

[11] = biological target: T2, Beta-ketoacyl-[acyl-carrier-protein] synthase III; assay: Binding affinity to Escherichia coli FabH assessed as dissociation constant by Isothermal titration calorimetry method
Streptococcus pneumoniae = assay: Antibacterial activity against Streptococcus pneumoniae assessed as reduction in bacterial growth measured after 24 hrs by two-fold serial dilution method; format: functional
[12] = biological target: T1, Beta-ketoacyl-[acyl-carrier-protein] synthase III (Escherichia coli K-12); assay: Binding affinity to Escherichia coli FabH assessed as change in entropy by Isothermal titration calorimetry method
Klebsiella pneumoniae = assay: Antibacterial activity against Klebsiella pneumoniae assessed as reduction in bacterial growth measured after 24 hrs by two-fold serial dilution method; format: functional
Pseudomonas aeruginosa = assay: Antibacterial activity against Pseudomonas aeruginosa assessed as reduction in bacterial growth measured after 24 hrs by two-fold serial dilution method; format: functional
Staphylococcus aureus [13] = assay: In vivo antibacterial activity against Staphylococcus aureus infected in Sprague-Dawley rat skin infection model assessed in reduction of wound exudation measured after 3 days; format: functional, organism-based; settings: time 3.0 day

deltaH [1]: -80 kcal/mol
MIC (Bacillus subtilis): 3.13 µg/mL (≈ 8.54 µM)
MIC (Escherichia coli): 1.56 µg/mL (≈ 4.26 µM)
deltaG [4]: -6.4 kcal/mol
MIC (Staphylococcus aureus [8]): 3.13 µg/mL (≈ 8.54 µM)
IC50 [10]: 2 µM
Kd [11]: 21.5 µM
MIC (Streptococcus pneumoniae): 6.25 µg/mL (≈ 17.1 µM)
TdeltaS [12]: -73.6 kcal/mol
MIC (Klebsiella pneumoniae): 1.56 µg/mL (≈ 4.26 µM)
MIC (Pseudomonas aeruginosa): 1.56 µg/mL (≈ 4.26 µM)
Structure (SMILES): COC(=O)c1c[nH]c2cc(NC(=O)c3ccc4c(c3)OCCCO4)ccc12
Activity (Staphylococcus aureus [2]): Active
HC30 (Erythrocyte): > 10 µg/mL
Activity (Staphylococcus aureus [3]): Active
IC50 at 24 h [5]: 142 µM
Activity (Staphylococcus aureus [6]): 94%
Activity (Staphylococcus aureus [7]): Active
Activity (Staphylococcus aureus [9]): Active
Activity (Staphylococcus aureus [13]): Active
